Assays:
[1] = molecular target: T1, recombinant human ALG13/14 complex (FLAG-ALG13-iso2/6His-ALG14) (Homo sapiens, UniProt Q96F25+Q9NP73); experiment: LC-MS (UPLC-ESI-MS) of acid-released glycans, Michaelis-Menten fit; format: biochemical; conditions: acceptor 20-100 μM; 2 mM UDP-GlcNAc fixed; Tris/HCl pH 7.5, 0.3% NP-40, 23% glycerol, 37 °C, 15 min; no added metal; read-out: K m (apparent)
T1 construct: pelB-FLAG-ALG13-iso2 (25 kDa on SDS-PAGE) and 6His-ALG14 (22 kDa) co-expressed in E. coli Rosetta (DE3); purified from Triton X-100 membrane extract by HisTrap and anti-FLAG; tags kept; heterodimer, 45-66 kDa on native PAGE
T1 sequence (Q9NP73 1-165 isoform Q9NP73-2): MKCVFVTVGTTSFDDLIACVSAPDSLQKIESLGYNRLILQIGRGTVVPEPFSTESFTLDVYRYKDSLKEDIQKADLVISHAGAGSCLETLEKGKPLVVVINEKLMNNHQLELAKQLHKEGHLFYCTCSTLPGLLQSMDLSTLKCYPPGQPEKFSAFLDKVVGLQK
T1 sequence (Q96F25 1-216): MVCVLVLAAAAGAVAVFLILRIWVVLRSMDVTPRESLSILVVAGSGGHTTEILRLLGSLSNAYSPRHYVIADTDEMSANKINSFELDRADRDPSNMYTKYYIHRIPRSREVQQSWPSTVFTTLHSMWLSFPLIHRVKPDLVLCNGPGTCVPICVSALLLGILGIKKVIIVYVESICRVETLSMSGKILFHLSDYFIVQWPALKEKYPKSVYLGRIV

[2] = molecular target: T2, 6His-ALG14 (human ALG14) (human) (UniProt Q96F25)
T2 sequence: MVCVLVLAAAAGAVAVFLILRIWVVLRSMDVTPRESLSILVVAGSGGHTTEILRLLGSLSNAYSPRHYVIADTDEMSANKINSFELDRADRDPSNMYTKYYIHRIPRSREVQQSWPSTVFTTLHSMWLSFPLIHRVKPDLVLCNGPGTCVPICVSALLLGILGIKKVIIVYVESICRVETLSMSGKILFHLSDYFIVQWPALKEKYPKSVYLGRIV

Molecule: CC(=O)N[C@H]1[C@@H](OP(=O)(O)OP(=O)(O)OCC[C@@H](C)CC/C=C(/C)CC/C=C(/C)CC/C=C(/C)CC/C=C(/C)CC/C=C(/C)CC/C=C(/C)CC/C=C(/C)CC/C=C(/C)CC/C=C(/C)CC/C=C(/C)CC/C=C(/C)CC/C=C(/C)CC/C=C(/C)CC/C=C(/C)CC/C=C(/C)CC/C=C(\C)CC/C=C(\C)CCC=C(C)C)O[C@H](CO)[C@@H](O)[C@@H]1O [Gn-PDol (C95)]
- Km [1]: 94.1 ± 9.4 µM

B1: FLAG-tagged ALG13-iso2 T141L (natural protein)
chain: MKCVFVTVGTTSFDDLIACVSAPDSLQKIESLGYNRLILQIGRGTVVPEPFSTESFTLDVYRYKDSLKEDIQKADLVISHAGAGSCLETLEKGKPLVVVINEKLMNNHQLELAKQLHKEGHLFYCTCSTLPGLLQSMDLSLLKCYPPGQPEKFSAFLDKVVGLQK
- Relative activity (%): GnTase conversion rate of the mutant / that of the wild type, detergent extract of E. coli membranes, 0.1 ng/ul ALG13, 37°C, 15 min [2]: 26%
